pIC50: −log10 of the molar value. Where only a bound is given, the exact number is not on record here.

Data set [1] has as its target T1, HER2 INS YVMA (Homo sapiens, UniProt P04626, INS775YVMA).
T1 construct: purchased DPF
The data set can be described thus: Lance Kinase Activity Assay, HER2 INS YVMA (Her2 Exon 20 INSYVMA Lance). The class given is biochemical. To be noted: biochemical Lance assay. The essentials: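 Kinase phosphorylates a ULight-labelled peptide substrate; Eu anti-phospho antibody gives TR-FRET (ex 340 nm, em 665/615 nm). Compounds in 1:3 serial dilution over 8 steps, reaction started with ATP, 1 h at room temperature, stopped with EDTA-containing detection mix for 1 h. IC50 from sigmoidal dose-response curves.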

Data set [2] addresses Her2 Exon 20 INSYVMA Ba/F3 (Homo sapiens, UniProt P04626, DUP772-775, cells depend on it). The data set is described as follows: Her2 Exon 20 INSYVMA Ba/F3 CellTiter-Glo. The class given is cell-based. The note with it: CellTiter-Glo, 72 h, read-out: Her2 Exon 20 INSYVMA Ba/F3 CTG IC50. The essentials:
(§1)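 IC50 values, binned A (≤100 nM) through E (>10000 nM), come from luminescent ATP quantitation of viable mutant-driven Ba/F3 cells. Compound exposure lasted 72 h, starting 24 h post-seeding; DMSO and 10 μM staurosporine served as controls, Z′ ≥0.5 required.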
(In general: ATP-based viability assays read luminescence as a measure of living cells.)

Data set [3] deals with EGFR Exon 20 INSNPH Ba/F3 (Homo sapiens, UniProt P00533, DUP771-773, cells depend on it). The data set can be described thus: EGFR Exon 20 INSNPH Ba/F3 CellTiter-Glo. The class given is cell-based. The note with it: CellTiter-Glo, 72 h, read-out: EGFR Exon 20 INSNPH Ba/F3 CTG IC50. The essentials: as §1
Data set [4] deals with EGFR T790ML858R (Homo sapiens, UniProt P00533, L858R/T790M). The data set is described as follows: EGFR T790ML858R Lance assay. Format: biochemical. As to the method:
(§2) Inhibition is indicated as […] [nM] (“−”=not measured). Compounds having an activity designated as “A” provided an IC50≤100 nM; compounds having an activity designated as “B” provided an 100 nM<IC50≤500 nM; compounds having an activity designated as “C” provided an 500 nM<IC50≤1000 nM; compounds having an activity designated as “D” provided an 1000 nM<IC50≤100000 nM; and compounds having an activity designated as “E” provided an IC50>10000 nM.

For data set [5], the target named is EGFR wt (Homo sapiens, UniProt P00533). The data set can be described thus: EGFR wt Lance assay. The class given is biochemical. As to the method:
as §2

Data set [6] has as its system H1975. The data set is described as follows: H1975 CellTiter-Glo. The class given is cell-based. The note with it: Homo sapiens, NCI-H1975; 72 h compound incubation; read-out: H1975 CTG IC50. The essentials:
(§3)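 Cells seeded, after 24 h at 37° C/5% CO2 treated with compounds in DMSO at various concentrations for 72 h. Viability from ATP luminescence (CellTiter-Glo); DMSO and 10 μM Staurosporine as controls; IC50 from dose-response fit, plates accepted at Z′ ≥0.5.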

In data set [7] the test system is H1781. The data set is described as follows: H1781 CellTiter-Glo. The class given is cell-based. To be noted: NCI-H1781; 72 h compound incubation; read-out: H1781 CTG IC50. As to the method: 2. Measurement of Cellular Activity
The CellTiter-Glo Luminescent Cell Viability Assay (Promega) is a homogeneous method of determining the number of viable cells in culture. It is based on quantification of ATP, indicating the presence of metabolically active cells. Cells are seeded on day 1 at cell numbers that assure assay linearity and optimal signal intensity. After incubation for 24 h in humidified chambers at 37° C. and 5% CO2, compounds in DMSO are added at different concentrations. Cells are further incubated for 72 h at 37° C. and 5% CO2. Cells treated with the compound vehicle DMSO are used as positive controls and cells treated with 10 μM Staurosporine serve as negative controls. At day 5 the CellTiter Glo Reagent is prepared according to the instructions of the kit (Promega Inc.): Reagent is mixed 1:1 with cell culture medium. Thereon, mixture and assay plates are equilibrated at room temperature for 20 min. Equal volumes of the reagent-medium-mixture is added to the volume of culture medium present in each well. The plates are mixed at ˜200 rpm for 2 minutes on an orbital shaker. The microplates are then incubated at room temperature for 10 minutes for stabilization of the luminescent signal. Following incubation the luminescence is recorded on a Victor microplate reader (Perkin Elmer) using a 200 ms integration time. The data is then analyzed with Excel using the XLFIT Plugin (dose response Fit 205) for IC50-determination. As quality control the Z′-factor is calculated from 16 positive and negative control values. Only assay results showing a Z′-factor ≥0.5 are used for further analysis.
as §2

The subject of data set [8] is A431. The data set can be described thus: A431 CellTiter-Glo. The class given is cell-based. To be noted: Homo sapiens, A-431; 72 h compound incubation; read-out: A431 CTG IC50. The essentials:
as §3

Data set [9] in a line: Metabolic stability in mouse liver microsomes without cofactor NADPH. The note with it: 3 μM test compound, mouse liver microsomes, without NADPH, 50 min, 37° C., LC-MS/MS. Format: in vitro ADME. In a few lines: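 Test compound (3 μM) was incubated with mouse liver microsomes without NADPH at 37° C. Depletion was followed by LC-MS/MS over time up to 50 min.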
Background: Microsomes from liver hold many membrane-bound enzymes, among them those of drug oxidation.

T1 sequence (P04626 with tags, fused parts or gaps INS775YVMA): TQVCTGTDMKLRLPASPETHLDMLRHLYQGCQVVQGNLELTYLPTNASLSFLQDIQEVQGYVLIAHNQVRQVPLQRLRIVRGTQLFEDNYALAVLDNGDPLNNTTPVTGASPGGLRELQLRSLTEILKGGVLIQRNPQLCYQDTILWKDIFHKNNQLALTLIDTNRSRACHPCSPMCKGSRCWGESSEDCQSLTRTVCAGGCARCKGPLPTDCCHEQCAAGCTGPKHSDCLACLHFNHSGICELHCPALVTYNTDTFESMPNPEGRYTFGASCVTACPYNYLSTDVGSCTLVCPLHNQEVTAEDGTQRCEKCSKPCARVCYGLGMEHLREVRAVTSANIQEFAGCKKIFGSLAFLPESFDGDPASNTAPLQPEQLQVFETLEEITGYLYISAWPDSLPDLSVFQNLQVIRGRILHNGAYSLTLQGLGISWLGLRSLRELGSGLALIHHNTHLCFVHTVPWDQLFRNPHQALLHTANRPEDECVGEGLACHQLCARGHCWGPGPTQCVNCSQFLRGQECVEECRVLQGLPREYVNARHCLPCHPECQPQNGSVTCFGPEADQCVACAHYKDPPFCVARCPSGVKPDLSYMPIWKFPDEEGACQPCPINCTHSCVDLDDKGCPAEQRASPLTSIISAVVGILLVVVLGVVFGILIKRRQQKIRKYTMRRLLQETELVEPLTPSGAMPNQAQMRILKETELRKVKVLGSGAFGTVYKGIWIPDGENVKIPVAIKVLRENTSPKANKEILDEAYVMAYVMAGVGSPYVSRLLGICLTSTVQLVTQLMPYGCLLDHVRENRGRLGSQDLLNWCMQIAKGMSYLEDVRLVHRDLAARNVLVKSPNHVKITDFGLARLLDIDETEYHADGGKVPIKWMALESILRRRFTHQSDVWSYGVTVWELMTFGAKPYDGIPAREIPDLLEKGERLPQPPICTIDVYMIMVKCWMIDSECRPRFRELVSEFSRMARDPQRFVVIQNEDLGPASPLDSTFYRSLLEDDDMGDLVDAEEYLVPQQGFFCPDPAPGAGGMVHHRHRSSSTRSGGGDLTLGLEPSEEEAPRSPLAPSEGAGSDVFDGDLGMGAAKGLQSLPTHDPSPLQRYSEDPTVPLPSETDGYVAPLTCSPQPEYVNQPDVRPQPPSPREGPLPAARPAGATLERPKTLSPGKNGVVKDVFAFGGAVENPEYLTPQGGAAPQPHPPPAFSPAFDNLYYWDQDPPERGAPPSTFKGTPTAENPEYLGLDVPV
Chain of EGFR Exon 20 INSNPH Ba/F3 (P00533 with tags, fused parts or gaps DUP771-773): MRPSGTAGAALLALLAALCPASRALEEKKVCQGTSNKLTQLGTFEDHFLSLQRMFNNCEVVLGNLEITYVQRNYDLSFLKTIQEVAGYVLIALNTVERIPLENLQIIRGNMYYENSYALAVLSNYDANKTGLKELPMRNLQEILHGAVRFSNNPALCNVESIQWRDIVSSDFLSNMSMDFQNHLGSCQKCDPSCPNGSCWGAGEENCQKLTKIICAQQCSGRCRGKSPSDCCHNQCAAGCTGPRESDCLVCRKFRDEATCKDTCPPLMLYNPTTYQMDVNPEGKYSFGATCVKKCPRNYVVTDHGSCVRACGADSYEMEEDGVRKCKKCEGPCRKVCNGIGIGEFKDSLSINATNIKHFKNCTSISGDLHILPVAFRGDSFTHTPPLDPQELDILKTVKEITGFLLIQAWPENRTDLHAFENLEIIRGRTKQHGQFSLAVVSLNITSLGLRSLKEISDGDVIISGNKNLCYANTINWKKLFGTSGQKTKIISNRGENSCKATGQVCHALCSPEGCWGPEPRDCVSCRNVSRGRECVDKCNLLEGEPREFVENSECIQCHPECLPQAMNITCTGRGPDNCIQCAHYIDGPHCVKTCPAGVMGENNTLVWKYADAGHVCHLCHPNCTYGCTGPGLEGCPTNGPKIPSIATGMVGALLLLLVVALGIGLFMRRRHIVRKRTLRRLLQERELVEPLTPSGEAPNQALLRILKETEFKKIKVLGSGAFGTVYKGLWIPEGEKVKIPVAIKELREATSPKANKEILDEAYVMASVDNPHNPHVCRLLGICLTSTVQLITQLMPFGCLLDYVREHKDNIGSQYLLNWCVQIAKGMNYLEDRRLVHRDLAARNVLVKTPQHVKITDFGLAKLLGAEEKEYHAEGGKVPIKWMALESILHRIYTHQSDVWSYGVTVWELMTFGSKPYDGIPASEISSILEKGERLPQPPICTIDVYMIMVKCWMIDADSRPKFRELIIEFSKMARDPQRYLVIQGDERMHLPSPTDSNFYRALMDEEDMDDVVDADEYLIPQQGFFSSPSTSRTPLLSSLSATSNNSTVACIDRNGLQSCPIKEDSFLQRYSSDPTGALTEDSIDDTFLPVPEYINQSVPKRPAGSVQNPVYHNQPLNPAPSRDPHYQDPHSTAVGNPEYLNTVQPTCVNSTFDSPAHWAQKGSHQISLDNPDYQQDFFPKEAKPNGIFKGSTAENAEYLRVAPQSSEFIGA
Chain of EGFR T790ML858R (P00533 25-1210 T790M/L858R): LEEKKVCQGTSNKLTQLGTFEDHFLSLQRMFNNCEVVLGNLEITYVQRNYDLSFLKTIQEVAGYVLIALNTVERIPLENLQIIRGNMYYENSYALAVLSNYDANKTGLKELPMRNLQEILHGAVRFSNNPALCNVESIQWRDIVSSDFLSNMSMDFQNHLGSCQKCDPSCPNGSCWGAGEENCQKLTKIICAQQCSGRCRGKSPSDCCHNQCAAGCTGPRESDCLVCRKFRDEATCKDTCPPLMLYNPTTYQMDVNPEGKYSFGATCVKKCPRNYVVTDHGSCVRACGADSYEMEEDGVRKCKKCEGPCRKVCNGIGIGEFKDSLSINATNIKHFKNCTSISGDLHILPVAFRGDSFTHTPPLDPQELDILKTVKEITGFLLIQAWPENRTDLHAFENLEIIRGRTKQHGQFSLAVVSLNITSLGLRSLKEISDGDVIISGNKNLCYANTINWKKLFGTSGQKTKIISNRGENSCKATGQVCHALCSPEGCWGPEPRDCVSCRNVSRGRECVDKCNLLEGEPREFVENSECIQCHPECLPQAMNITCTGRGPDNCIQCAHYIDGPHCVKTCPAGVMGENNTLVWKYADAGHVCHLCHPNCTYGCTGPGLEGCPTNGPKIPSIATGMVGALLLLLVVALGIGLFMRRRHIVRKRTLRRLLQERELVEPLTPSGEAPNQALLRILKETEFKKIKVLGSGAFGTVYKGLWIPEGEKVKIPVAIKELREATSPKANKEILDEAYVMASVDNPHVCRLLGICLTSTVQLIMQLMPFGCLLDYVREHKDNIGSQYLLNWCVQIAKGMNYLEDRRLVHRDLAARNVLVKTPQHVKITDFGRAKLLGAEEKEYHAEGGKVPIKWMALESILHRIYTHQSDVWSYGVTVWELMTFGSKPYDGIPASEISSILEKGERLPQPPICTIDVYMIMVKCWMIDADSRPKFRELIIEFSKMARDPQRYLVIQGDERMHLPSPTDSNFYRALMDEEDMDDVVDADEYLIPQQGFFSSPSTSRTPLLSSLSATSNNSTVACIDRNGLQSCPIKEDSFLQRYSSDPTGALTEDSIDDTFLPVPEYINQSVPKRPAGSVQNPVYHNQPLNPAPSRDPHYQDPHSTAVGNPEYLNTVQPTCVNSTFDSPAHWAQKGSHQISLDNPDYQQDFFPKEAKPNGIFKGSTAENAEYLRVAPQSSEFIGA
Chain of Her2 Exon 20 INSYVMA Ba/F3 (P04626 with tags, fused parts or gaps DUP772-775): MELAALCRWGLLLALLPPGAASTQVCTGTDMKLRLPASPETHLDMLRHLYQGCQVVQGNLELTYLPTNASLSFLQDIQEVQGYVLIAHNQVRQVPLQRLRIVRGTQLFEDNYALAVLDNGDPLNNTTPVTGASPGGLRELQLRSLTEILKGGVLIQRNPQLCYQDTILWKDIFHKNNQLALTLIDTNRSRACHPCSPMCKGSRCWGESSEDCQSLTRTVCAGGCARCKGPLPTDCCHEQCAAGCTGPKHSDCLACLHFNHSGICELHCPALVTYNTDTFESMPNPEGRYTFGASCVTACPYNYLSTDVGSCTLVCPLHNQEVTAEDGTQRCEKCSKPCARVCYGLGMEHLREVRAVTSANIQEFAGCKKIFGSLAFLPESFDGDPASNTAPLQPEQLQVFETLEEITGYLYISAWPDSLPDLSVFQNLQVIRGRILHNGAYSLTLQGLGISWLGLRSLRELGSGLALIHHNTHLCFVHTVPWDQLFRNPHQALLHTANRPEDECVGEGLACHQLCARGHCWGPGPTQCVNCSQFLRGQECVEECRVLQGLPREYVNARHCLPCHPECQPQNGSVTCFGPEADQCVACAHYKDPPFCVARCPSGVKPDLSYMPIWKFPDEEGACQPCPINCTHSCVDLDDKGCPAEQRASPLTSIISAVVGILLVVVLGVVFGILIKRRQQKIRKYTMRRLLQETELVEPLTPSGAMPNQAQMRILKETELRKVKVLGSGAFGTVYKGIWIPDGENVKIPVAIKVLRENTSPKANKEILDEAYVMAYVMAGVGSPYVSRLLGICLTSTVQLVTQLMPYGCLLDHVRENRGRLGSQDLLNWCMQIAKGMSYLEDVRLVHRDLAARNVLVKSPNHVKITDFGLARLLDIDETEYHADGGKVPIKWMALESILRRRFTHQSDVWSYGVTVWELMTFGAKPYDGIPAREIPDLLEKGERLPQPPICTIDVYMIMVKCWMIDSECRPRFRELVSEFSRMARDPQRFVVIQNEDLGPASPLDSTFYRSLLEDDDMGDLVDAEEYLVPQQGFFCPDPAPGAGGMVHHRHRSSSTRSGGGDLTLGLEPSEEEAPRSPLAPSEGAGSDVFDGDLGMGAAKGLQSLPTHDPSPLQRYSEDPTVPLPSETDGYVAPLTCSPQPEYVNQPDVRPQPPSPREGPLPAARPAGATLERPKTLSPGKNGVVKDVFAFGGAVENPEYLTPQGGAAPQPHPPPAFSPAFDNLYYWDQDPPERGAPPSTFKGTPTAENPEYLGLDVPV

The pIC50 is the IC50 on a negative log10 scale, so that one unit is a factor of ten. `C=CC(=O)Nc1cc(-c2c(-c3ccc(OCCN(C)C)cc3)[nH]c3nccc(Cl)c23)ccc1C` [Example 18, N-(5-(4-chloro-2-(4-(2-(dimethylamino)ethoxy)phenyl)-1H-pyrrolo[2,3-b]pyridin-3-yl)-2-methylphenyl)acrylamide]: the pIC50 in data set [1] is not below 7.00; in [4], not below 7.00; in data set [5], not below 7.00; in data set [6], not below 7.00; in data set [7], 6.30 to 7.00; in data set [8], 6.30 to 7.00. For the same compound, the GI50 in data set [2] was 100 to 500 nM; in [3], not above 100 nM. Also, the “Stability in presence of mouse liver microsomes without cofactor NADPH [% remaining after 50 min]” value in data set [9] is 90 % remaining after 50 min.

As for `C=CC(=O)Nc1cc(-c2c(-c3ccc(OCCCN4CCN(CC)CC4)cc3)[nH]c3nccc(Cl)c23)ccc1C` [Example 23, N-(5-(4-chloro-2-(4-(3-(4-ethylpiperazin-1-yl)propoxy)phenyl)-1H-pyrrolo[2,3-b]pyridin-3-yl)-2-methylphenyl)acrylamide], the pIC50 in data set [1] is not below 7.00; in data set [4], not below 7.00; in data set [5], not below 7.00; in [6] it was not below 7.00; in data set [7], 6.30 to 7.00; in data set [8], 6.30 to 7.00. Also, the GI50 in data set [2] and in data set [3] was 100 to 500 nM throughout. Moreover, the “Stability in presence of mouse liver microsomes without cofactor NADPH [% remaining after 50 min]” value in data set [9] is on record as more than 99 % remaining after 50 min.

On to `C=CC(=O)Nc1cc(-c2c(-c3cccc(OCCCN4CCN(CC)CC4)c3)[nH]c3nccc(Cl)c23)ccc1C` [Example 25, N-(5-(4-chloro-2-(3-(3-(4-ethylpiperazin-1-yl)propoxy)phenyl)-1H-pyrrolo[2,3-b]pyridin-3-yl)-2-methylphenyl)acrylamide], for which the pIC50 is not below 7.00 in [1]; not below 7.00 in data set [4]; not below 7.00 in data set [5]; not below 7.00 in data set [6]; 6.00 to 6.30 in [7]; 6.30 to 7.00 in data set [8]. For the same compound, the GI50 in [2] and in [3] was 100 to 500 nM in each case. Besides, the “Stability in presence of mouse liver microsomes without cofactor NADPH [% remaining after 50 min]” value in data set [9] is more than 99 % remaining after 50 min.

For the compound `C=CC(=O)Nc1cc(-c2c(-c3ccnc(N4CCN(C)CC4)c3)[nH]c3nccc(Cl)c23)ccc1C` [Example 26, N-(5-(4-chloro-2-(2-(4-methylpiperazin-1-yl)pyridin-4-yl)-1H-pyrrolo[2,3-b]pyridin-3-yl)-2-methylphenyl)acrylamide], the pIC50 in data set [1] was not below 7.00; in data set [4], not below 7.00; in data set [5], not below 7.00; in [6], not below 7.00; in data set [7] it was 6.00 to 6.30; in data set [8], 6.30 to 7.00. Further, the GI50 in [2] and in [3] was 100 to 500 nM each time. Further, in data set [9], the “Stability in presence of mouse liver microsomes without cofactor NADPH [% remaining after 50 min]” value is more than 99 % remaining after 50 min.

Consider `C=CC(=O)Nc1cc(-c2c(-c3cccc(OCCN(C)C)c3)[nH]c3nccc(Cl)c23)ccc1C` [Example 28, N-(5-(4-chloro-2-(3-(2-(dimethylamino)ethoxy)phenyl)-1H-pyrrolo[2,3-b]pyridin-3-yl)-2-methylphenyl)acrylamide], for which the pIC50 in [1] was not below 7.00; in data set [4], not below 7.00; in data set [5] it was not below 7.00; in data set [6], not below 7.00; in data set [7], 6.30 to 7.00; in [8], 6.30 to 7.00. Also, the GI50 in [2] and in [3] was 100 to 500 nM throughout. Further, in [9], the “Stability in presence of mouse liver microsomes without cofactor NADPH [% remaining after 50 min]” value is on record as more than 99 % remaining after 50 min.

The values above are taken from US20220370440A1 (Lead Discovery Center GmbH, priority 2018, published 2022).
